# According to patent publication US11999957B2, “Method for enhancing vanillin resistance of Saccharomyces cerevisiae by knocking out SNG1 gene” (QILU UNIVERSITY OF TECHNOLOGY, priority 2020, dated 2024):
# Columns and labels:
# sng1Δ mutant [1] = assay: Shake-flask fermentation under vanillin stress (OD600 growth); format: cell-based, Saccharomyces cerevisiae
# Experimental: (§1) A single colony of the sng1Δ mutant was picked, transferred to 1-2 mL of a SC medium and cultured at 30° C. and 200 rpm for about 24 h. The cell suspension was transferred to 20 mL of fresh medium at an initial OD600 of 0.2 and cultured at 30° C. and 200 rpm overnight to the mid log phase for secondary activation. Then the cell culture, at an initial OD600 of 0.2, was transferred to 40 mL of a SC medium containing 6 mmol/L of vanillin and cultured at 30° C. and 200 rpm under shaking, where the OD600 was regularly measured.
# (§2) The maximum specific growth rate was obtained by calculating a […] regression slope of ln(OD600) versus time in the logarithmic growth phase.
# Saccharomyces cerevisiae = conditions: 0.9 g/L vanillin; extended from 2 hours without vanillin; cited from earlier work
# wild-type BY4741 strain = assay: Shake-flask fermentation under vanillin stress (OD600 growth); format: cell-based, Saccharomyces cerevisiae; conditions: wild-type BY4741, SC medium containing 6 mmol/L of vanillin, 30° C., 200 rpm
# Experimental: as §1, §2
# Similarly, the specific consumption rate of vanillin in the wild-type BY4741 strain was calculated to be 0.035 g g^−1 h^−1 according to the above method (FIG. 4).
# sng1Δ mutant [2] = assay: Growth on YEPD plate containing vanillin (spot dilution test); format: cell-based, Saccharomyces cerevisiae; conditions: YEPD plate with 6 mmol/L of vanillin, 30° C., 1-3 days, sng1Δ mutant vs control strain
# Experimental: The sng1Δ mutant obtained above was cultured on a YEPD plate containing 6 mmol/L of vanillin to observe its growth status. Specifically, the sng1Δ mutant was inoculated to 1-2 mL of a liquid YEPD medium and cultured at 30° C. overnight to logarithmic growth phase. Then the mutant cells were transferred to 5 mL of fresh medium at an initial OD600 of 0.2, cultured overnight and centrifuged. The cells were collected, washed with 1 mL of sterile water three times and centrifuged at 8,000 r/min. The cells were again suspended with sterile water and placed at 30° C. for 9 h to prepare resting cells, and during the preparation, the medium was prepared, poured to a plate and naturally dried. The cell suspension was adjusted to OD600 of 1.0 and subjected to 10-fold serial dilution, and 4 μL of the suspension at each dilution was dropped on the plate, cultured at 30° C. for 1-3 days and photographed to observe the colony growth. The control strain was tested in the same way for the vanillin resistance.
smiles,measurement,setting,value
COc1cc(C=O)ccc1O [vanillin],maximum specific growth rate,"sng1Δ mutant [1]; sng1Δ mutant, SC medium containing 6 mmol/L of vanillin, aerobic, shaking, 30° C., 200 rpm",0.225 h⁻¹
same,improvement of maximum specific growth rate of sng1Δ mutant compared to the control strain,"sng1Δ mutant [1]; under vanillin stress (6 mmol/L), sng1Δ mutant vs BY4741",70%
same,delay period (lag) of growth,Saccharomyces cerevisiae,about 24 hours
same,maximum specific growth rate,wild-type BY4741 strain,0.132 h⁻¹
same,growth status on plate under vanillin stress,sng1Δ mutant [2],superior growth status to the control strain
